Source: ChEMBL document CHEMBL1201862, “PubChem BioAssay data set” (2004)
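A five-concentration, 48-hour dose response in 96-well plates underlies each endpoint, interpolated linearly between surrounding concentrations. At the GI50, growth is halved.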 Active and inactive are the calls of the source. Cut-off read from the data, not from the text of the source: active = GI50 up to about 1.1 µM and inactive = higher. Where a SMILES comes first, the peptide text is derived from it. [ ]: non-standard residue; d: D form. 2Nal = N[CH](Cc1ccc2ccccc2c1)C(=O)O

Columns and labels:
Assay in all cases: NCI-60 cell line screen, 48 h
[1] = system: NCI-H23
[2] = system: MDA-MB-231
[3] = system: HCT-116
[4] = system: HCC 2998
[5] = system: CAKI-1
[6] = system: IGROV-1
[7] = system: UO-31
[8] = system: NCI/ADR-RES
[9] = system: HCT-15
[10] = system: M14
[11] = system: MDA-MB-435
[12] = system: ACHN
[13] = system: SK-MEL-2
[14] = system: SN12C
[15] = system: MCF7
[16] = system: RPMI-8226
[17] = system: NCI-H522
[18] = system: RXF 393

Row | SMILES | GI50 [1] | GI50 [2] | GI50 [3] | GI50 [4] | GI50 [5] | GI50 [6] | GI50 [7] | GI50 [8] | GI50 [9] [µM] | GI50 [10] | GI50 [11] | GI50 [12] | GI50 [13] | GI50 [14] | GI50 [15] | GI50 [16] | GI50 [17] | GI50 [18]
1 | Cc1ccccc1NC(=O)Cc1csc(N/N=C2\NC(=O)/C(=C/c3cccc([N+](=O)[O-])c3)S2)n1 | 19.1 µM (inactive) | 21.7 µM (inactive) | 36.7 µM (inactive) | 14.3 µM (inactive) | 19.7 µM (inactive) | 14.1 µM (inactive) | 13.1 µM (inactive) | 31.3 µM (inactive) | 15.8 | 17 µM (inactive) | 19.8 µM (inactive) | 15.6 µM (inactive) | 26.4 µM (inactive) | 36.6 µM (inactive) | 41.8 µM (inactive) | – | – | –
2 | CCCN1CN(c2ccccc2)C2(CCN(CCCC(=O)c3ccc(F)cc3)CC2)C1=O | 4.12 µM (inactive) | 6.93 µM (inactive) | 2.18 µM (inactive) | 7.82 µM (inactive) | 4.61 µM (inactive) | 2.54 µM (inactive) | 11.8 µM (inactive) | 4.53 µM (inactive) | 4.31 | 12.4 µM (inactive) | 11 µM (inactive) | 2.13 µM (inactive) | 11.6 µM (inactive) | 2.94 µM (inactive) | 0.6 µM (active) | 12.4 µM (inactive) | 20.3 µM (inactive) | 16.8 µM (inactive)
3 | COC(=O)C1=CCC2c3[nH]c4ccccc4c3CCN2C1 (stereo not drawn) | > 354 µM (inactive) | – | 242 µM (inactive) | > 354 µM (inactive) | > 354 µM (inactive) | > 354 µM (inactive) | – | – | > 354 | – | – | > 354 µM (inactive) | > 354 µM (inactive) | > 354 µM (inactive) | – | > 354 µM (inactive) | 154 µM (inactive) | > 354 µM (inactive)
4 | CC1CC(=O)C(C(O)CC2CC(=O)N(c3ccccc3)C(=O)C2)C(C)C1 (stereo not drawn) | > 100 µM (inactive) | – | > 100 µM (inactive) | > 100 µM (inactive) | > 100 µM (inactive) | > 100 µM (inactive) | > 100 µM (inactive) | – | – | > 100 µM (inactive) | – | > 100 µM (inactive) | – | > 100 µM (inactive) | – | > 100 µM (inactive) | > 100 µM (inactive) | > 100 µM (inactive)
5 | COc1cc2oc(=O)ccc2cc1C1OC(=O)C2OC21C (stereo not drawn) | > 100 µM (inactive) | > 100 µM (inactive) | > 100 µM (inactive) | > 100 µM (inactive) | > 100 µM (inactive) | > 100 µM (inactive) | 64.9 µM (inactive) | > 100 µM (inactive) | > 100 | > 100 µM (inactive) | > 100 µM (inactive) | > 100 µM (inactive) | > 100 µM (inactive) | > 100 µM (inactive) | > 100 µM (inactive) | > 100 µM (inactive) | – | > 100 µM (inactive)
6 | CC(NC(=O)C(N)Cc1ccccc1)C(=O)NC(Cc1ccc(O)cc1)C(=O)NC(Cc1c[nH]c2ccccc12)C(=O)NC(CCCCN)C(=O)NC(C(=O)NC(C)C(=O)NC(Cc1ccc2ccccc2c1)C(N)=O)C(C)C (stereo not drawn) (H-FAYWKVA[2Nal]-NH2; configuration not given here) | > 12.5 µM (inactive) | > 12.5 µM (inactive) | > 12.5 µM (inactive) | > 12.5 µM (inactive) | > 12.5 µM (inactive) | > 12.5 µM (inactive) | > 12.5 µM (inactive) | > 12.5 µM (inactive) | > 12.5 | > 12.5 µM (inactive) | > 12.5 µM (inactive) | > 12.5 µM (inactive) | > 12.5 µM (inactive) | > 12.5 µM (inactive) | > 12.5 µM (inactive) | > 12.5 µM (inactive) | > 12.5 µM (inactive) | > 12.5 µM (inactive)
7 | O=c1[nH]n(Cc2ccccc2Cl)c2ccc([N+](=O)[O-])cc12 | 49.8 µM (inactive) | 39.4 µM (inactive) | 41.1 µM (inactive) | 50.1 µM (inactive) | > 100 µM (inactive) | 61.9 µM (inactive) | 34.3 µM (inactive) | 28.1 µM (inactive) | 58.6 | > 100 µM (inactive) | 3.98 µM (inactive) | 33.3 µM (inactive) | 34.7 µM (inactive) | 54 µM (inactive) | – | 45.1 µM (inactive) | 36.1 µM (inactive) | 23.3 µM (inactive)
8 | COc1ccc(N2C(=O)C(=O)N(c3ccc(/N=N\c4ccccc4)cc3)C2=S)cc1 | 18.5 µM (inactive) | 22.8 µM (inactive) | 19.3 µM (inactive) | 16.4 µM (inactive) | 20.2 µM (inactive) | 16.6 µM (inactive) | 16.3 µM (inactive) | 18.9 µM (inactive) | 17.2 | – | 22.8 µM (inactive) | 19 µM (inactive) | 17.9 µM (inactive) | 18 µM (inactive) | – | 40.7 µM (inactive) | 5.37 µM (inactive) | 17.3 µM (inactive)
9 | CC(=O)O[C@]12CCC[C@H]1C1(O)C(O)CCC[C@H]12 (stereo partly drawn) | > 100 µM (inactive) | – | > 100 µM (inactive) | – | – | – | > 100 µM (inactive) | – | > 100 | > 100 µM (inactive) | – | > 100 µM (inactive) | > 100 µM (inactive) | > 100 µM (inactive) | – | > 100 µM (inactive) | > 100 µM (inactive) | > 100 µM (inactive)
10 | O=C(CSc1nc(-c2ccccc2)c(-c2ccccc2)[nH]1)NNC(=S)Nc1ccccc1 | > 100 µM (inactive) | – | 97.1 µM (inactive) | > 100 µM (inactive) | 81.7 µM (inactive) | 82.4 µM (inactive) | 71.9 µM (inactive) | – | > 100 | 94.6 µM (inactive) | – | 85.1 µM (inactive) | > 100 µM (inactive) | > 100 µM (inactive) | – | 27.6 µM (inactive) | 19.2 µM (inactive) | –
11 | COc1cc2c(cc1OC)C(C#N)N(C(=O)c1ccccc1)C=C2OC(=O)c1ccccc1 (stereo not drawn) | 44.9 µM (inactive) | – | – | 45.1 µM (inactive) | – | 24.8 µM (inactive) | 20.4 µM (inactive) | – | 32.1 | 37.8 µM (inactive) | – | 20 µM (inactive) | 22.6 µM (inactive) | 38.5 µM (inactive) | – | 39.2 µM (inactive) | 17.2 µM (inactive) | –
12 | CCc1cccc(C(C)C)c1NC(=O)C(=O)C1C(=O)NC(=O)NC1=O | > 100 µM (inactive) | – | > 100 µM (inactive) | > 100 µM (inactive) | > 100 µM (inactive) | > 100 µM (inactive) | > 100 µM (inactive) | – | > 100 | > 100 µM (inactive) | – | > 100 µM (inactive) | – | > 100 µM (inactive) | – | > 100 µM (inactive) | > 100 µM (inactive) | > 100 µM (inactive)
13 | O=C1NC(=O)[C@@H](OCC2CCCCC2)[C@@H]2OCC3OC(C(O)C3O)C12 (stereo partly drawn) | > 100 µM (inactive) | > 100 µM (inactive) | > 100 µM (inactive) | > 100 µM (inactive) | > 100 µM (inactive) | > 100 µM (inactive) | – | > 100 µM (inactive) | > 100 | > 100 µM (inactive) | > 100 µM (inactive) | > 100 µM (inactive) | > 100 µM (inactive) | > 100 µM (inactive) | > 100 µM (inactive) | – | – | > 100 µM (inactive)
14 | CNC(=O)OCc1c(COC(=O)NC)c(-c2ccc(Cl)c(Cl)c2)n2c1SCC2 | 21 µM (inactive) | 10.8 µM (inactive) | 11.5 µM (inactive) | 19.7 µM (inactive) | 4.22 µM (inactive) | – | 7.46 µM (inactive) | 16 µM (inactive) | 13 | 18.7 µM (inactive) | 18 µM (inactive) | 3.61 µM (inactive) | 11.7 µM (inactive) | 13 µM (inactive) | 13 µM (inactive) | 12.2 µM (inactive) | 8.85 µM (inactive) | 3.31 µM (inactive)
15 | COC(CN1C=C(Sc2ccccc2)CC1)OC | 23.7 µM (inactive) | – | 29.5 µM (inactive) | 33.9 µM (inactive) | 41.4 µM (inactive) | 53.2 µM (inactive) | 29.9 µM (inactive) | – | 37.7 | 33.7 µM (inactive) | – | 34.6 µM (inactive) | 19.4 µM (inactive) | 33.9 µM (inactive) | – | 21.7 µM (inactive) | – | 20.8 µM (inactive)
16 | COc1ccc(S(=O)(=O)Nc2ccc(-c3csc(N4C(=O)/C(=C/C=C\c5ccccc5)N=C4c4ccccc4)n3)cc2)cc1Cl | 18.9 µM (inactive) | 22.9 µM (inactive) | 25.7 µM (inactive) | – | 36.1 µM (inactive) | 19.9 µM (inactive) | 28.3 µM (inactive) | 28.7 µM (inactive) | 21.8 | 27.6 µM (inactive) | 22.8 µM (inactive) | 31.1 µM (inactive) | 22.6 µM (inactive) | 33.2 µM (inactive) | 32.4 µM (inactive) | – | 18.5 µM (inactive) | 22.3 µM (inactive)
17 | Nc1nc2c(N)cc(C(F)(F)F)cc2nc1-c1ccccc1 | > 100 µM (inactive) | – | > 100 µM (inactive) | > 100 µM (inactive) | > 100 µM (inactive) | > 100 µM (inactive) | > 100 µM (inactive) | – | > 100 | > 100 µM (inactive) | – | > 100 µM (inactive) | > 100 µM (inactive) | > 100 µM (inactive) | – | – | 85.3 µM (inactive) | > 100 µM (inactive)
18 | OCC(CCc1ccccc1I)C1=CCC2(CC1)OCCO2 (stereo not drawn) | 20.5 µM (inactive) | 23.9 µM (inactive) | – | 20.4 µM (inactive) | 24.7 µM (inactive) | 16.7 µM (inactive) | 17.8 µM (inactive) | 20.8 µM (inactive) | 21.9 | 20 µM (inactive) | 15.7 µM (inactive) | 28.7 µM (inactive) | 23.9 µM (inactive) | – | 23.3 µM (inactive) | 53.6 µM (inactive) | 15.2 µM (inactive) | 14.9 µM (inactive)
